Test results from paper PMC2630426 (Journal of medicinal chemistry, 2008).
Read-outs that look alike come from different tables or passages of the source.

What was measured:
μ opioid receptor [1] = target: T1, μ opioid receptor (Rattus norvegicus, UniProt P33535); experiment: rat brain membrane binding assay, μ opioid receptor; conditions: based on the receptor binding constants (Ki values)
κ opioid receptor [2] = target: T2, κ opioid receptor (Cavia porcellus, UniProt P41144); experiment: GPI assay, κ opioid antagonist potency; format: biochemical, guinea pig
T2 sequence (P41144 whole entry): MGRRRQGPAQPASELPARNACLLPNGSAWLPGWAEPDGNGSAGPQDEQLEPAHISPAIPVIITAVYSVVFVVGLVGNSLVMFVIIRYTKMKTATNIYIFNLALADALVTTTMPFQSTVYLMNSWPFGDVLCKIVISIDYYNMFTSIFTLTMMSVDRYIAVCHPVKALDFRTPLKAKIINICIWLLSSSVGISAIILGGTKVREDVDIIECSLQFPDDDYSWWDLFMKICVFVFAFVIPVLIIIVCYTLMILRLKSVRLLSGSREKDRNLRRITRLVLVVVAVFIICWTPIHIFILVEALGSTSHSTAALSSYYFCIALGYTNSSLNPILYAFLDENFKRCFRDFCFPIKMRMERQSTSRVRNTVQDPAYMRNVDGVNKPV

δ opioid receptor [3] = target: T3, δ opioid receptor (Mus musculus, UniProt P32300); experiment: MVD assay, δ opioid antagonist potency; format: biochemical
T3 sequence (P32300 whole entry): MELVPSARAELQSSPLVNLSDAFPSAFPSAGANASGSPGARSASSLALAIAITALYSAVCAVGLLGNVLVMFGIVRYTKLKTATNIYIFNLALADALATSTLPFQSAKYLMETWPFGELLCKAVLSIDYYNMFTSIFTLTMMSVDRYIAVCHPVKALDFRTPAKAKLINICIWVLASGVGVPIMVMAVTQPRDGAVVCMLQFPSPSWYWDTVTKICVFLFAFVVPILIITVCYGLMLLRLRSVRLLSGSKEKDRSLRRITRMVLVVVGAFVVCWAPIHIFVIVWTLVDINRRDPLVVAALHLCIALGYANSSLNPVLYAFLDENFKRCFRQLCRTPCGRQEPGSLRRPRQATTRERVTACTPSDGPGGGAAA

μ opioid receptor [4] = target: T1, μ opioid receptor; conditions: cited from earlier work
κ opioid receptor [5] = target: T2, κ opioid receptor; conditions: read-out: Ki^κ, opioid receptor binding, cited from earlier work
κ opioid receptor [6] = target: T2, κ opioid receptor; conditions: GPI, U50,488 as κ agonist, cited from earlier work
μ opioid receptor [7] = conditions: GPI, TAPP as μ agonist, cited from earlier work
δ opioid receptor [8] = target: T3, δ opioid receptor; conditions: cited from earlier work; for Ke^δ: MVD, DPDPE as δ agonist
δ opioid receptor [9] = target: T4, δ opioid receptor (Rattus norvegicus, UniProt P33533); conditions: ref Schiller et al. 4, cited from earlier work
T4 sequence (P33533 whole entry): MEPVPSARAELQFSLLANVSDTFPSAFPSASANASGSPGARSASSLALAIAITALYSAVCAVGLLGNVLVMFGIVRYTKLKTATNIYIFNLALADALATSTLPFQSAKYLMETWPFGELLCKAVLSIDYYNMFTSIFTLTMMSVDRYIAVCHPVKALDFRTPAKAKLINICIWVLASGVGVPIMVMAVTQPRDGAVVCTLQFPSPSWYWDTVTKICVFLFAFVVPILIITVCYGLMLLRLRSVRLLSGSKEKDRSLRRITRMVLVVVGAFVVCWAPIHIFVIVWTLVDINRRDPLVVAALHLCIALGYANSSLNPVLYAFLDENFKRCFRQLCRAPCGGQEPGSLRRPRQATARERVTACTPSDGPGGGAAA

δ opioid receptor [10] = target: T4, δ opioid receptor; conditions: read-out: Ki^δ; cited from earlier work
μ opioid receptor [11] = conditions: cited from earlier work; for Ki: read-out: Ki^μ
δ opioid receptor [12] = target: T4, δ opioid receptor; conditions: cited from earlier work
μ opioid receptor [13] = conditions: cited from earlier work
[14] = endomorphin-derived μ antagonists

T1 sequence (P33535 whole entry): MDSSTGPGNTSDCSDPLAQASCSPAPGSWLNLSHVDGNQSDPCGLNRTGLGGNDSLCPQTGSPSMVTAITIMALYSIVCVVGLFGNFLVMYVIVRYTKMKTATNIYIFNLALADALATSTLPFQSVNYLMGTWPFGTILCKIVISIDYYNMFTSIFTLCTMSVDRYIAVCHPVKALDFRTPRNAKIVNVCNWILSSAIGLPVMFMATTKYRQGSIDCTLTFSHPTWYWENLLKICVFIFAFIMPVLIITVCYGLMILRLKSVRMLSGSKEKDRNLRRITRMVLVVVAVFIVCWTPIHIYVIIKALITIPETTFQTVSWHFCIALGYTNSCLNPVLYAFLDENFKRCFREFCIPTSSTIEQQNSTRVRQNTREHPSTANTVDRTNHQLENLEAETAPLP

CC[C@H](C)[C@H](NC(=O)[C@H](CCCNC(=N)N)NC(=O)[C@H](CCCNC(=N)N)NC(=O)[C@H](CC(C)C)NC(=O)[C@H](Cc1ccccc1)NC(=O)CNC(=O)CNC(=O)[C@@H](C)Cc1c(C)cc(C(N)=O)cc1C)C(=O)N[C@@H](CCCNC(=N)N)C(=O)N1CCC[C@H]1C(=O)N[C@@H](CCCCN)C(N)=O [compound 5, [(2S)-Mdcp^1]Dyn A(1-11)-NH2]
Ki ratio μ/δ/κ (μ opioid receptor [1]): 1/1/1 | Kb (κ opioid receptor [2]): 5.96 ± 0.8 nM | Kb (δ opioid receptor [3]): 843 ± 88 nM

(2S)-Mdp-c[D-Cys-Gly-Phe(pNO2)-D-Cys]NH2 (disulfide) [compound 2]
Ki ratio μ/δ/κ (μ opioid receptor [4]; based on Ki values, ref Schiller et al. 2): 1/2/42 | Ki (κ opioid receptor [5]; ref Schiller et al. 2): 92.8 ± 5.3 nM | Ke^κ (κ opioid receptor [6]; ref Schiller et al. 2): 6.41 ± 0.18 nM | Ke^μ (μ opioid receptor [7]; ref Schiller et al. 2): 1.48 ± 0.18 nM | Ke^δ (δ opioid receptor [8]; ref Schiller et al. 2): 3.48 ± 0.28 nM

(2S)-Mdp-c[D-Pen-Gly-Phe(pF)-Pen]-Phe-OH (disulfide) (YCGFCF) [compound 4]
Ki (μ opioid receptor [4]; read-out: Ki^μ, opioid receptor binding, ref Schiller et al. 4): 406 ± 21 nM | Ki (κ opioid receptor [5]; ref Schiller et al. 4): 3710 ± 400 nM | Ki (δ opioid receptor [9]; read-out: Ki^δ, opioid receptor binding): 2.32 ± 0.4 nM

(2S)-Mdp-c[D-Pen-Gly-Phe(pF)-Pen]-Phe-OH (disulfide) [compound 4]
Ki ratio δ/μ/κ (δ opioid receptor [9]; based on Ki values): 1/175/1600 | Ke^κ (κ opioid receptor [6]; ref Schiller et al. 4): 4370 ± 860 nM | Ke^μ (μ opioid receptor [7]; ref Schiller et al. 4): 668 ± 40 nM | Ke^δ (δ opioid receptor [8]; ref Schiller et al. 4): 0.785 ± 0.135 nM | Ke ratio δ/μ/κ (δ opioid receptor [8]; from Ke values of GPI and MVD assays, ref Schiller et al. 4): 1/851/5570

Dhp-c[N^ε,N^β-carbonyl-D-Lys^2,Dap^5]enkephalinamide
Ki (δ opioid receptor [10]): 273 nM | Ki (μ opioid receptor [11]): 15.5 nM

H-D-Phe-c[Cys-Tyr-D-Trp-Orn-Thr-Pen]-Thr-NH2 [CTOP]
IC50 (μ opioid receptor [11]; read-out: IC50^μ, somatostatin-derived μ opioid antagonist): 2.8 nM

H-Dmt-Sar-Phe-D-Nal-NH2
Ke^δ (δ opioid receptor [12]): 305 nM | Ke^μ (μ opioid receptor [13]): 2.34 nM

[(2S)-Mdp^1]Dyn A(1-11)-NH2 [compound 6]
Ke^κ (κ opioid receptor [6]; ref Lu et al. 3): 3.92 ± 0.65 nM | Ke^μ (μ opioid receptor [7]; ref Lu et al. 3): 925 ± 94 nM | Ke^δ (δ opioid receptor [8]; ref Lu et al. 3): 3320 ± 520 nM

[Dmt^1,D-2-Nal^4]endomorphin-1 [antanal-1]
Ki (μ opioid receptor [11]; [14]): 2.38 nM

[Dmt^1,D-2-Nal^4]endomorphin-2 [antanal-2]
Ki (μ opioid receptor [11]; [14]): 1.52 nM
